Measured values from BindingDB's records for doi:10.1126/scitranslmed.abb5883 (University of North Carolina at Chapel Hill, 2020).
Several values for one entry are separate records, joined by “and”; a condition that tells them apart may be missing. Identical values can stand only once.

Tests used:
[1] = molecular target: T1, Replicase polyprotein 1ab (Severe acute respiratory syndrome coronavirus 2, UniProt P0DTD1); assay: SARS-CoV-2 in Calu-3
Protocol: Calu-3 2B4 cells were adsorbed with MOI 0.1 PFU/cell of SARS-CoV-2 (2019-nCoV/USA-WA1/2020 strain) at 37°C. Plates were manually rocked every 10 min to redistribute the inoculum. After 30 min, virus inoculum was removed, cells were washed with Phosphate buffered saline (PBS) once to remove unbound virus, medium containing NHC or vehicle control (DMSO) was added back onto the cells, and cells were incubated for 72 hours at 37°C.

[2] = molecular target: T1, Replicase polyprotein 1ab; assay: SARS-CoV-2 in Vero E6
Protocol: Vero E6 cells were plated at 20,000 cells/well in a 96-well plate. 24hr later, medium containing a dose response of NHC was added concurrent with SARS-CoV-2 (2019-nCoV/USA-WA1/2020 strain) at an MOI of 0.05. 48 hours post infection, cell viability was measured by CellTiter Glo assay.

## O=c1nc(NO)ccn1[C@@H]1O[C@H](CO)[C@@H](O)[C@H]1O [NHC]
[1]
  IC50: 80 nM and 90 nM
[2]
  IC50: 300 nM
